Measurements from PMC4279406, “Simultaneous targeting of PI3Kδ and a PI3Kδ-dependent MEK1/2-Erk1/2 pathway for therapy in pediatric B-cell acute lymphoblastic leukemia” (Oncotarget, 2014).

Key:
Assay type in all cases: cell-based, human
Raji cells [1] = experiment: Caspase 3/7 activity assay
Procedure: (§1) Simultaneous targeting of PI3Kδ and a PI3Kδ-dependent MEK1/2-Erk1/2 pathway for therapy in pediatric B-cell acute lymphoblastic […]
(§2) Cells were treated as indicated conditions and then subjected to lysate to perform standard Western blot as described previously1. Briefly, whole-cell lysates and SDS-loading buffer diluted cell fractions were analyzed on SDS-PAGE gels. Transfer to nitrocellulose membranes, nonfat milk blocking, probing with indicated primary antibodies and the corresponding HRP-conjugated second antibodies.
(§3) Chemiluminescence were performed and captured using ImageQuant LAS 4000 (GE healthcare Life Sciences, Piscataway, NJ, USA) and band intensity was measure both with ImageQuant™ TL (GE Healthcare Life Sciences) 2.
(§4) Caspase 3/7 activity assay
(§5) Raji cells were treated with or without X-370 at 1 μM, 5μM and 10 μM for 24, 48 and 72 hours, thenwere measured using the Caspase-Glo® 3/7 Assay (Promega, US) following the protocol and relative caspase-3/7 activity was normalized to cell number which DMSO control was the base line.
(§6) 5-bromo-2'-deoxyuridine (BrdU) incorporation Assay
(§7) 5-bromo-2'-deoxyuridine (BrdU) incorporation was performed using FITC BrdU Flow Kit (BD Pharmingen, San Diego, CA) according to the provided protocol.
(§8) Figure S1;. CAL-101 docked to the crystal structure of PI3Kδ. […]

Raji MEK DD cells = experiment: Proliferation of Raji MEK DD cells (CCK-8); settings: 72 h, CCK-8, compared with Raji
Procedure: Figure 5 Inhibition of Erk1/2 phosphorylation by X-370 contributed to its antiproliferative activity (A-C) X-370 inhibited Erk1/2 phosphorylation via PI3K-PDK1-MEK1/2 cascade but not the PI3K-Gab1 positive feedback loop. (A) Raji and SU-DHL-6 cells were exposed to 1 μM X370 for 3 h and protein fraction from cellular membrane was separated using Native Membrane Protein Extraction Kit and probed. WCL: whole cell lysate. (B) Inhibition of PDK1 or MEK1/2 abrogated Erk1/2 phosphorylation. Cells were treated with pharmacological inhibitors of Raf (AZ 628, PLX4032), MEK1/2 (AZD6244), p90RSK (BI-D1870), PI3Kδ (X-370), PDK1 (BX-912), Akt (MK-2206), mTOR (AZD8055) or mTORC1 (Rapamycin) respectively and indicated proteins were detected. […] Raji cells were treated with 1 μM X370 for 1 h and cell lysates were immunoprecipitated with anti-PDK1 antibody and indicated proteins were detected. […] (E) Raji and Raji MEK DD cells were treated with X-370 for 72 h and cell proliferation was detected by CCK-8 assay. (F) Raji MEK DD cells were treated with X-370 and AZD6244 and cell proliferation was detected by CCK-8 assay. Data were show as mean ± SD of three independent experiments. *: p < 0.05 determined by t-tests at each data point. […]
luciferase. Raji cells expressing MEK DD or luciferase were incubated with 1 μM AZD6244 or DMSO control respectively for 72 h, and then cell viability were assessed by CCK-8 reagent. […]

Raji cells [2] = experiment: BrdU incorporation assay; settings: 1 μM, 24 h
Procedure: as §1, §2, §3, §4, §5, §6, §7, §8

Compound: O=C(N1CCCC1)N1CCC(n2cnc3c(-n4c(C(F)F)nc5ccccc54)nc(N4CCOCC4)nc32)CC1 [X-370]
- concentration at which caspase 3/7 activity increased (Raji cells [1]): ≥ 5 µM
- effect of MEK DD expression on inhibition of viability (Raji MEK DD cells): attenuated inhibition of viability
- DNA synthesis (BrdU incorporation) (Raji cells [2]): readily inhibited
